Assay results: patent publication US7501430B2 (ArQule, Inc., priority 2006, dated 2009)

target: T1, mutant B-RAF (Homo sapiens, UniProt P15056, V600E); assay: RAF biochemical assay (MEK-1 phosphorylation, anti-phospho MEK1/2 detection); conditions: @ 3 uM
T1 construct: purchased Upstate (Charlottesville, Va.)
How it was run: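 Detection is by ELISA: after a 30 min room-temperature reaction, plate-captured GST-MEK-1 is probed with anti-phospho MEK1/2, then an AP-tagged secondary antibody with fluorescent Attophos read-out.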

T1 sequence (P15056 whole entry V600E): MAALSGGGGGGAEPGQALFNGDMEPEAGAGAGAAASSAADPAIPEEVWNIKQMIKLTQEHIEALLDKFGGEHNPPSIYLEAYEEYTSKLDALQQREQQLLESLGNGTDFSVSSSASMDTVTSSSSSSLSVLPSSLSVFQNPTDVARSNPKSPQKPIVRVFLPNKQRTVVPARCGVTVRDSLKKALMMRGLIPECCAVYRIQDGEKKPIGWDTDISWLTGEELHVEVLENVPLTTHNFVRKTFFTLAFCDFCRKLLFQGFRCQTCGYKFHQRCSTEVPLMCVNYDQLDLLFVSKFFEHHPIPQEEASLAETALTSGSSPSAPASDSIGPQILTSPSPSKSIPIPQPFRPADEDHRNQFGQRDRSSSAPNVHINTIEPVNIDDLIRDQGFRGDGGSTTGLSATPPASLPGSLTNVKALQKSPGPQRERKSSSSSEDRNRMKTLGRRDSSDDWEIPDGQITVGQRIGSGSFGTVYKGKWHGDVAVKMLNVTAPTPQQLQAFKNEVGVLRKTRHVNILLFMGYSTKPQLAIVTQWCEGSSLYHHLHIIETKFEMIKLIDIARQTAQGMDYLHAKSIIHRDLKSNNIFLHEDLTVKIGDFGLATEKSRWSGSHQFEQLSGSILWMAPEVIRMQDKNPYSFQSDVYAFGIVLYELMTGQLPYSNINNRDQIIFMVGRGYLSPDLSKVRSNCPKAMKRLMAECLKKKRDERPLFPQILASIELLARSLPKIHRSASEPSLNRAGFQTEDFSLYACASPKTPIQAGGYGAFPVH

Row | inhibition at 3 µM [%] | Structure (SMILES)
1 | 48 | O=S(=O)(c1ccc(Cl)cc1)N1CCC[C@@H](Nc2nccc(-c3c(-c4ccc(F)c(F)c4)nc4sccn34)n2)C1 [Example 114, N-{(3R)-1-[(4-chlorophenyl)sulfonyl]piperidin-3-yl}-4-[6-(3,4-difluorophenyl)imidazo[2,1-b][1,3]thiazol-5-yl]pyrimidin-2-amine]

same assay, conditions: @ 10 uM; read-out: Mutant B-RAF % inhibition

Row | Structure (SMILES) | inhibition at 10 µM [%]
2 | c1cc(-c2c(-c3ccc4c(c3)OCCO4)nc3sccn23)nc(N[C@@H]2CCCNC2)n1 [Example 99, 4-[6-(2,3-dihydro-1,4-benzodioxin-6-yl)imidazo[2,1-b][1,3]thiazol-5-yl]-N-[(3R)-piperidin-3-yl]pyrimidin-2-amine] | 29
3 | COc1cc(-c2nc3sccn3c2-c2ccnc(N[C@@H]3CCCN(S(=O)(=O)c4ccc(Cl)cc4)C3)n2)ccc1Cl [Example 100, 4-[6-(4-chloro-3-methoxyphenyl)imidazo[2,1-b][1,3]thiazol-5-yl]-N-{(3R)-1-[(4-chlorophenyl)sulfonyl]piper-idin-3-yl}pyrimidin-2-amine] | 40
4 | COc1cccc(-c2nc3occn3c2-c2ccnc(N[C@@H]3CCCN(S(=O)(=O)c4ccc(Cl)cc4)C3)n2)c1 [Example 103, N-{(3R)-1-[(4-chlorophenyl)sulfonyl]piperidin-3-yl}-4-[6-(3-methoxyphenyl)imidazo[2,1-b][1,3]oxazol-5-yl]pyrimidin-2-amine] | 48

Other lines, results leading:

Row | inhibition at 10 µM [%] | Structure (SMILES)
5 | 27 | COc1ccc(-c2nc3sccn3c2-c2ccnc(N[C@@H]3CCCNC3)n2)cc1 [Example 106, 4-[6-(4-methoxyphenyl)imidazo[2,1-b][1,3]thiazol-5-yl]-N-[(3R)-piperidin-3-yl]pyrimidin-2-amine]
6 | 52 | CC(C)CC(=O)N1CCC[C@@H](Nc2nccc(-c3c(-c4cccc(O)c4)nc4sccn34)n2)C1 [Example 116, 3-[5-(2-{[(3R)-1-(3-methylbutanoyl)piperidin-3-yl]amino}pyrimidin-4-yl)imidazo[2,1-b][1,3]thiazol-6-yl]phenol]
7 | 55 | O=[N+]([O-])c1cccc(-c2nc3sccn3c2-c2ccnc(N[C@@H]3CCCN(S(=O)(=O)c4ccc(Cl)cc4)C3)n2)c1 [Example 120, N-{(3R)-1-[(4-chlorophenyl)sulfonyl]piperidin-3-yl}-4-[6-(3-nitrophenyl)imidazo[2,1-b][1,3]thiazol-5-yl]pyrimidin-2-amine]

same assay, conditions: read-out: Mutant B-RAF % inhibition

Row | Structure (SMILES) | inhibition at 10 µM [%]
8 | COc1cccc(-c2nc3sccn3c2-c2ccnc(N[C@@H]3CCCN(C(=O)c4ccc(F)cc4)C3)n2)c1 [Example 108, N-[(3R)-1-(4-fluorobenzoyl)piperidin-3-yl]-4-[6-(3-methoxyphenyl)imi-dazo[2,1-b][1,3]thiazol-5-yl]pyrimidin-2-amine] | 73

same assay, conditions: read-out: Mutant B-RAF IC50

Row | Structure (SMILES) | IC50 [µM]
9 | Cc1cn2c(-c3ccnc(N[C@@H]4CCCN(S(=O)(=O)c5ccc(Cl)cc5)C4)n3)c(-c3ccc(F)cc3)nc2s1 [Example 96, N-{(3R)-1-[(4-chlorophenyl)sulfonyl]piperidin-3-yl}-4-[6-(4-fluorophenyl)-2-methyl-imidazo[2,1-b][1,3]thiazol-5-yl]pyrimidin-2-amine] | 0.026
10 | c1ccc2cc(-c3nc4sccn4c3-c3ccnc(N[C@@H]4CCCNC4)n3)ccc2c1 [Example 97, 4-[6-(2-naphthyl)imidazo[2,1-b][1,3]thiazol-5-yl]-N-[(3R)-piperidin-3-yl]pyrimidin-2-amine] | 0.314
11 | O=S(=O)(c1ccc(Cl)cc1)N1CCC[C@@H](Nc2nccc(-c3c(-c4ccc(F)cc4)nc4sccn34)n2)C1 [Example 98, N-{(3R)-1-[(4-chlorophenyl)sulfonyl]piperidin-3-yl}-4-[6(4-fluorophenyl)imidazo[2,1-b][1,3]thiazol-5-yl]pyrimidin-2-amine] | 0.036
12 | O=S(=O)(c1ccc(Cl)cc1)N1CCC[C@@H](Nc2nccc(-c3c(-c4ccc(Cl)c(O)c4)nc4sccn34)n2)C1 [Example 101, 2-chloro-5-{5-[2-({(3R)-1-[(4-chlorophenyl)sulfonyl]piperidin-3-yl}amino)pyrimidin-4-yl]imidazo[2,1-b][1,3]thiazol-6-yl}phenol] | 0.011
13 | COc1ccccc1-c1nc2sccn2c1-c1ccnc(N[C@@H]2CCCNC2)n1 [Example 102, 4-[6-(2-methoxyphenyl)imidazo[2,1-b][1,3]thiazol-5-yl]-N-[(3R)-piperidin-3-yl]pyrimidin-2-amine] | 1.28

Now from value to compound:

Row | IC50 [µM] | Structure (SMILES)
14 | 0.033 | O=S(=O)(c1ccc(Cl)cc1)N1CCC[C@@H](Nc2nccc(-c3c(-c4ccccc4O)nc4sccn34)n2)C1 [Example 107, 2-{5-[2-({(3R)-1-[(4-chlorophenyl)sulfonyl]piperidin-3-yl}amino)pyrimidin-4-yl]imidazo[2,1-b][1,3]thiazol-6-yl}phenol]
15 | > 3 | COc1cccc(-c2nc3sccn3c2-c2ccnc(N[C@@H]3CCCN(C(=O)CC(C)C)C3)n2)c1 [Example 109, 4-[6-(3-methoxyphenyl)imidazo[2,1-b][1,3]thiazol-5-yl]-N-[(3R)-1-(3-methylbutanoyl)piperidin-3-yl]pyrimidin-2-amine]
16 | > 5 | O=S(=O)(c1ccc(Cl)cc1)N1CCC[C@@H](Nc2nccc(-c3c(-c4ccc(O)cc4)nc4sccn34)n2)C1 [Example 110, 4-{5-[2-({(3R)-1-[(4-chlorophenyl)sulfonyl]piperidin-3-yl}amino)pyrimidin-4-yl]imidazo[2,1-b][1,3]thiazol-6-yl}phenol]
17 | 0.028 | N#Cc1ccc(S(=O)(=O)N2CCC[C@@H](Nc3nccc(-c4c(-c5cccc(O)c5)nc5sccn45)n3)C2)cc1 [Example 111, 4-{[(3R)-3-({4-[6-(3-hydroxyphenyl)imidazo[2,1-b][1,3]thiazol-5-yl]pyrimidin-2-yl}amino)piperidin-1-yl]sulfonyl}benzonitrile]
18 | 3.84 | O=C(c1ccc(F)cc1)N1CCC[C@@H](Nc2nccc(-c3c(-c4cccc(O)c4)nc4sccn34)n2)C1 [Example 113, 3-[5-(2-{[(3R)-1-(4-fluorobenzoyl)piperidin-3-yl]amino}pyrimidin-4-yl)imidazo[2,1-b][1,3]thiazol-6-yl}phenol]
19 | > 10 | COc1cccc(-c2nc3occn3c2-c2ccnc(N[C@@H]3CCCNC3)n2)c1 [Example 115, 4-[6-(3-methoxyphenyl)imidazo[2,1-b][1,3]oxazol-5-yl]-N-[(3R)-piperidin-3-yl]pyrimidin-2-amine]
20 | 0.328 | O=C(c1ccncc1)N1CCC[C@@H](Nc2nccc(-c3c(-c4cccc(O)c4)nc4sccn34)n2)C1 [Example 117, 3-[5-(2-{[(3R)-1-isonicotinoylpiperidin-3-yl]amino}pyrimidin-4-yl)imidazo[2,1-b][1,3]thiazol-6-yl]phenol]
21 | 0.229 | COc1cccc(-c2nc3sccn3c2-c2ccnc(N[C@@H]3CCCN(S(=O)(=O)c4ccc(CCC(=O)O)cc4)C3)n2)c1 [Example 118, 3-(4-{[(3R)-3-({4-[6-(3-methoxyphenyl)imidazo[2,1-b][1,3]thiazol-5-yl]pyrimidin-2-yl}amino)piperidin-1-yl]sulfonyl}phenyl)propanoic acid]
22 | 0.092 | COc1cccc(-c2nc3sccn3c2-c2ccnc(N[C@@H]3CCCN(S(=O)(=O)c4ccc(C(=O)O)cc4)C3)n2)c1 [Example 119, 4-{[(3R)-3-({4-[6-(3-methoxyphenyl)imidazo(2,1-b][1,3]thiazol-5-yl]pyrimidin-2-yl}amino)piperidin-1-yl]sulfonyl}benzoic acid]
